Source: patent publication US10973821B2, “Pharmaceutical formulation” (priority 2016, dated 2021)

Key:
S. apiospermum 451 = details: cited from earlier work
S. apiospermum 8353 = details: cited from earlier work
A. fumigatus [1] = details: cited from earlier work
S. prolifican 8353 = details: cited from earlier work
A. terreus 49 = details: cited from earlier work
A. fumigatus [2] = details: A. fumigatus infected mice; orally by gavage; cited from earlier work
S. apiospermum 7935 = details: cited from earlier work
A. terreus = details: cited from earlier work
S. prolificans 206 = details: cited from earlier work
S. prolifican 201 = details: cited from earlier work
S. apiospermum 1124 = details: cited from earlier work
S. prolificans 18389 = details: cited from earlier work
S. apiospermum 15848 = details: cited from earlier work
A. flavus = details: cited from earlier work
S. dehoogii = details: cited from earlier work
[3] = in vivo PK studies in rats (single dose IV and p.o.); details: rat, 10 mg/kg
Protocol: Various formulations were investigated in in vivo PK studies in rats to determine the optimal oral formulation for dosing to animals and humans.
The compound of Formula I was administered to rats by IV at a dosage of 10 mg/kg. The vehicle comprised 15% hydroxypropyl beta cyclodextrin (Kelptose HPB parenteral grade), 5% DMSO and water for injection. The formulation was filtered using a ≤0.22 μm polyethersulfone (PES) membrane filter prior to use. The dose volume administered was 5 mL/kg. 0.2 mL blood samples from the sublingal vein under isoflurane anaesthesia were obtained 5 minutes after IV administration and stored in EDTA. Plasma was separated by centrifugation (1500×g, 10 mins, ca. 4° C.) and was frozen at −70° C. prior to analysis. Analysis to calculate plasma concentration of the compound of Formula I was conducted by LC-MS/MS. […] The AUCIV value was subsequently used to calculate the bioavailability of example oral formulations as described above.
A crystalline sample of the compound of Formula I was formulated in PEG300. The formulation was dosed p.o. (gavage) to rats at 10 mg/kg (dose volume=5 mL/kg). 0.2 mL blood samples from the sublingal vein under isoflurane anaesthesia were obtained 15 minutes after oral administration and stored in EDTA. Samples were then taken 0.5, 1, 2, 4, 8, 12 and 24 hours post-dose.

S. prolifican 13486 = details: cited from earlier work
S. prolifican 1121 = details: cited from earlier work
S. prolifican 7935 = details: cited from earlier work
A. fumigatus 210 = details: cited from earlier work
S. apiospermum 13486 = details: cited from earlier work
S. prolifican 15849 = details: cited from earlier work
S. apiospermum 4883 = details: cited from earlier work
[4] = system: Lomentospora prolificans FMR 3569; details: mice infected with Lomentospora prolificans FMR 3569; relative to voriconazole; orally by gavage; cited from earlier work
S. aurantiacum = details: cited from earlier work
invasive aspergillosis = details: mouse; orally by gavage; not the formulations of the present invention; cited from earlier work
S. prolificans 6322 = details: cited from earlier work
S. prolifican 451 = details: cited from earlier work
S. boydii = details: cited from earlier work
[5] = in vivo PK studies in cynomolgus monkeys (single dose IV and p.o.); details: both sexes, cynomolgus monkey, 10 mg/kg
Protocol: Various formulations were investigated in in vivo PK studies in cynomolgus monkeys to determine the optimal oral formulation for dosing to animals and humans.
The compound of Formula I was administered to male and female cynomolgus monkeys by IV at a dosage of 10 mg/kg. The IV formulation was as described in Example 3. […] The AUCIV value was subsequently used to calculate the bioavailability of example oral formulations as described above.
Studies were conducted using Formulation 2 as described above. The compound of Formula I was administered p.o. to male and female cynomolgus monkeys at a dose level of 10 mg/kg. (dose volume 5 mL/kg). 2 mL blood samples were obtained 5 minutes via femoral puncture (vein/artery) into commercially available K2EDTA tubes using 23G needles coupled to a suitable syringe. Samples were taken 0.25, 0.5, 1, 2, 4, 8, 12 and 24 hours after administration of the formulation. Blood samples were kept on ice until centrifugation at 1600×g (10 mins, ca. 5° C.) to separate plasma. Analysis to calculate plasma concentration of the compound of Formula I was conducted by LC-MS/MS.
Studies were conducted using Formulation 5 as described in Example 3. […]

S. prolifican 15848 = details: cited from earlier work
S. prolifican 4883 = details: cited from earlier work
A. niger = details: cited from earlier work

## Cc1cc(-c2ccccc2)c(C(=O)C(=O)Nc2ccc(N3CCN(c4ncc(F)cn4)CC3)cc2)n1C [compound of Formula I, 2-(1,5-dimethyl-3-phenyl-1H-pyrrol-2-yl)-N-(4-(4-(5-fluoropyrimidin-2-yl)piperazin-1-yl)phenyl)-2-oxoacetamide]
S. apiospermum 451
  MIC band (RPMI medium): B (0.005 < MIC ≤ 0.01)
S. apiospermum 8353
  MIC band (RPMI medium): B (0.005 < MIC ≤ 0.01)
A. fumigatus [1]
  MIC band (RPMI medium): C (0.01 < MIC ≤ 0.02)
S. prolifican 8353
  MIC band (RPMI medium): B (0.005 < MIC ≤ 0.01)
A. terreus 49
  MIC band (RPMI medium): A (MIC ≤ 0.005)
A. fumigatus [2]
  galactomannan indices: reduce galactomannan indices
S. apiospermum 7935
  MIC band (RPMI medium): C (0.01 < MIC ≤ 0.02)
A. terreus
  MIC band (RPMI medium): A (MIC ≤ 0.005)
S. prolificans 206
  MIC band (RPMI medium): D (0.02 < MIC ≤ 0.04)
S. prolifican 201
  MIC band (RPMI medium): D (0.02 < MIC ≤ 0.04)
S. apiospermum 1124
  MIC band (RPMI medium): A (MIC ≤ 0.005)
S. prolificans 18389
  MIC band (RPMI medium): C (0.01 < MIC ≤ 0.02)
S. apiospermum 15848
  MIC band (RPMI medium): D (0.02 < MIC ≤ 0.04)
A. flavus
  MIC band (RPMI medium): B (0.005 < MIC ≤ 0.01)
S. dehoogii
  antifungal activity: good antifungal activity
[3]
  AUC: 13500 ng·h/mL
S. prolifican 13486
  MIC band (RPMI medium): D (0.02 < MIC ≤ 0.04)
S. prolifican 1121
  MIC band (RPMI medium): A (MIC ≤ 0.005)
S. prolifican 7935
  MIC band (RPMI medium): C (0.01 < MIC ≤ 0.02)
A. fumigatus 210
  MIC band (RPMI medium): C (0.01 < MIC ≤ 0.02)
S. apiospermum 13486
  MIC band (RPMI medium): D (0.02 < MIC ≤ 0.04)
S. prolifican 15849
  MIC band (RPMI medium): E (0.04 < MIC ≤ 0.06)
S. apiospermum 4883
  MIC band (RPMI medium): C (0.01 < MIC ≤ 0.02)
[4]
  survival: increase survival
S. aurantiacum
  antifungal activity: good antifungal activity
Invasive aspergillosis
  efficacy in murine models of invasive aspergillosis: excellent efficacy
S. prolificans 6322
  MIC band (RPMI medium): D (0.02 < MIC ≤ 0.04)
S. prolifican 451
  MIC band (RPMI medium): B (0.005 < MIC ≤ 0.01)
S. boydii
  antifungal activity: good antifungal activity
[5]
  AUC: 18000 ng·h/mL
S. prolifican 15848
  MIC band (RPMI medium): D (0.02 < MIC ≤ 0.04)
S. prolifican 4883
  MIC band (RPMI medium): C (0.01 < MIC ≤ 0.02)
A. niger
  MIC band (RPMI medium): C (0.01 < MIC ≤ 0.02)
